{
  "source": "patent EP3760204A1",
  "about": "“MEDICAMENT FOR PREVENTION OR TREATMENT OF HUNTINGTON'S DISEASE” (Medizinische Universität Graz, priority 2019, dated 2021)",
  "key": {"[1]": {"test_system": "HepG2 cells", "assay": "Autophagic flux assay (LC3 II Western blot, with or without chloroquine) in HepG2 cells", "type": "cell-based, human", "conditions": "50µM hyperforin vs ethanol vehicle, Figure 6A", "experimental": "(§1) Western blot: Protein lysate was generated by homogenization (Magnalyzer, Roche) of tissue or cell pellet in homogenization buffer with protease and phosphatase inhibitors (Halt tablets, Invitrogen). After homogenization, lysates were sonicated 2x for 10\" each. Lysates were then centrifuged for 10 min at 4°C and the supernatant was subjected to BCA protein estimation (Thermo Fisher). Equal amounts of lysate were loaded to self-made acrylamide gels. After separation, the protein was transferred to a PVDF membrane with semi-dry transfer."}, "[2]": {"test_system": "TFEB", "assay": "LC3 II induction after TFEB knockdown (siTFEB) in HepG2 cells", "type": "cell-based, human", "conditions": "50µM, +/- chloroquine, Figure 9", "experimental": "as §1"}, "[3]": {"test_system": "alpha-1-antitrypsin", "assay": "Pathological alpha-1-antitrypsin (Z-allele) accumulation in transfected HeLa cells", "type": "cell-based, human", "conditions": "HeLa cells transfected with PXR/RXR and Z-allele of alpha-1-antitrypsin, 50µM, 24h; Figure 10", "experimental": "as §1"}, "[4]": {"test_system": "HepG2 cells", "assay": "pGFP-RFP-LC3 autophagic flux assay in transfected HepG2 cells", "conditions": "fed condition, 50µM, Figures 3C, 6C"}},
  "data": [
    {"substance": "hyperforin", "values": [
      {"measurement": "LC3 II protein", "setting": "[1]", "result": "induces"},
      {"measurement": "LC3 II in the presence of TFEB", "setting": "[2]; non-targeting control (NT) HepG2 cells", "result": "induces"},
      {"measurement": "LC3 II induction in siTFEB cells", "setting": "[2]; siTFEB HepG2 cells", "result": "blunted"},
      {"measurement": "pathological A1AT accumulation", "setting": "[3]", "result": "robustly decreases"},
      {"measurement": "autophagic flux (GFP-RFP-LC3 dots)", "setting": "[4]", "result": "induced autophagic flux"}
    ]}
  ]
}
